# Assay results: patent publication US20240027453A1, “METHOD FOR DETECTION AND QUANTITATIVE MONITORING OF INFECTIONS WITH HERPESVIRUSES” (The Trustees of Princeton University, priority 2020, published 2024)
# Like-named read-outs stand apart in the source and are kept apart here.
# System: HCMV
# Format: cell-based
# Protocol: In example herpesvirus PRM assay methods shown herein, cell pellets were lysed in 2% SDS, 100 mM NaCl, 0.5 mM EDTA, 50 mM Tris, pH 8.2, and 50 μg of protein was reduced and alkylated with 25 mM TCEP and 50 mM CAM respectively for 20 min at 70° C. Proteins were then precipitated via methanol chloroform precipitation (Wessel & Flugg, Anal Biochem. 138(1):141-143, 1984), resuspended in 50 mM HEPES, pH 8.2 and digested overnight with trypsin (50:1 protein:enzyme w/w ratio). Digested peptides were desalted by SDB-RPS StageTip as previously described (Lum et al., Cell Syst., 7(6):[…], 2018; Greco et al., Methods Mol Biol 1410:39-63, 2016; Federspiel & Cristea, Methods Mol Biol., 1977:115-143, 2019).
# Peptides (1.0 μg on column) were analyzed by LC-MS/MS using a Dionex Ultimate 3000 UHPLC coupled online to an EASYSpray ion source and a Q Exactive HF. Peptides were separated on an EASYSpray C18 column (75 μm×25 cm) heated to 50° C. using a linear gradient of 5% B to 32% B over 60 min at a flow rate of 250 nL/min and were ionized at 1.7 kv. Mobile phase A consisted of 0.1% FA in H2O and mobile phase B consisted of 0.1% FA, 2.9% H2O in ACN.
# The PRM method was controlled by a peptide inclusion list with retention time windows of 6 min for selected precursor ions.
# The PRM assay was developed and analyzed using the open-source software Skyline (Maclean et al., Bioinformatics 26(7):966-968, 2010). Summed area under the curve of 3-4 transitions per peptide was used for quantitation. Targeted peptides were normalized to host protein loading control peptides. Peptide values for each sample were scaled to the average of each peptide across all runs. The average of multiple peptides was used as the inferred value for the protein measurement when more than one peptide was quantified (Federspiel et al., PLoS Biol. 17(9):e3000437. Doi: 10.1371/journal.pbio.3000437). PRM quantitation data were graphed using the Python Seaborn and Matplotlib libraries.
# MRC5 primary human fibroblasts (HFs) (ATCC CCL-171) were used as the model system for HSV-1 and HCMV infections and were cultured in complete growth medium (DMEM supplemented with 10% fetal bovine serum and 1% penicillin-streptomycin antibiotics) at 37° C. and 5% CO2. iSLK.219 cells harboring latent KSHV (a gift from Dr. Britt Glaunsinger, University of California, Berkeley) were grown in complete growth medium supplemented with 500 μg/ml hygromycin (ThermoFisher Scientific, 10687010) at 37° C. and 5% CO2. All cells were used for experiments within a maximum of 10 passages.
# Wild type HSV-1 strain 17+ (a gift from Beate Sodeik, Hannover Medical School, Hannover, Germany) was propagated as previously described (Diner et al., 2015). Briefly, PO stocks were generated by electroporating pBAC-HSV-1 into U-2 OS cells. […] In a similar manner, wild type HCMV strain AD169 was produced from BAC electroporation into HFs and working stocks were propagated by infecting HFs at a low level. In both cases, cell-associated virus was released by sonication, combined with supernatant virus, then concentrated by ultracentrifugation (20,000 rpm, 2 hours, 4° C. with SW28 swinging bucket rotor [Beckman Coulter]) over a 10% ficoll (HSV-1) or 20% sorbitol (HCMV) cushion. Virus stock titers were determined by plaque assay for HSV-1 or tissue culture infectious dose (TCID50) for HCMV and infections were performed at a multiplicity of infection (MOI) of 3.
# 12 hours prior to virus infection or reactivation, cells were treated with either the small molecule drug or DMSO/PBS control at an equivalent volume. […] For infection cycles lasting longer than 24 hours, small molecule drugs were re-added to the cell culture medium every 24 hours. Upon collection, cells were rinsed with PBS, scraped into a microcentrifuge tube, pelleted by centrifugation, and rinsed again with PBS.
structure (smiles),measurement,setting,value
Nc1c(S(=O)(=O)c2ccccc2)c2nc3ccccc3nc2n1-c1ccc(F)cc1 [CAY10602],GO (P16750) protein level,"timepoint 72, L",0.05989
same,IR11 (P16809) protein level,"timepoint 72, L",0.4344
same,MCP (P16729) protein level,"timepoint 72, L",0.02624
same,SCP (Q7M6N6) protein level,"timepoint 72, L",0.015
same,TRM2 (P16792) protein level,"timepoint 72, L",0.0795
same,UL22A (P16845) protein level,"timepoint 72, L",0.215
same,UL25 (P16761) protein level,"timepoint 72, L",0.096
same,UL29 (P16764) protein level,"timepoint 72, L",0.506
same,UL30 (P16765) protein level,"timepoint 72, L",0.1431
same,UL31 (P16848) protein level,"timepoint 72, L",0.1447
same,UL43 (P16781) protein level,"timepoint 72, L",0.03176
same,UL52 (P16793) protein level,"timepoint 72, L",0.1191
same,UL76 (P16725) protein level,"timepoint 72, L",0.03192
same,UL80 (P16753) protein level,"timepoint 72, L",0.06052
same,UL82 (P06726) protein level,"timepoint 72, L",0.1042
same,UL87 (P16730) protein level,"timepoint 72, L",0.09029
same,UL88 (P16731) protein level,"timepoint 72, L",0.1686
same,UL94 (P16800) protein level,"timepoint 72, L",0.1145
same,UL99 (P13200) protein level,"timepoint 72, L",0.05513
same,UL103 (P16734) protein level,"timepoint 72, L",0.09275
same,UL117 (P16770) protein level,"timepoint 72, L",0.3151
same,gH (P12824) protein level,"timepoint 72, L",0.1032
same,gL (P16832) protein level,"timepoint 72, L",0.08246
same,gM (P16733) protein level,"timepoint 72, L",0.06242
same,gN (P16795) protein level,"timepoint 72, L",0.1122
same,IR10 (P16808) protein level,"timepoint 72, LL",0.03558
same,IR12 (P16810) protein level,"timepoint 72, LL",0.4497
same,TRM3 (P16732) protein level,"timepoint 72, LL",0.03658
same,TRX1 (P16783) protein level,"timepoint 72, LL",0.02099
same,TRX2 (P16728) protein level,"timepoint 72, LL",0.02193
same,UL24 (P16760) protein level,"timepoint 72, LL",0.1166
same,UL40 (P16780) protein level,"timepoint 72, LL",0.4727
same,UL47 (P16784) protein level,"timepoint 72, LL",0.06008
same,UL49 (P16786) protein level,"timepoint 72, LL",0.1643
same,UL69 (P16749) protein level,"timepoint 72, LL",0.2062
same,UL70 (P17149) protein level,"timepoint 72, LL",0.4194
same,UL83 (P06725) protein level,"timepoint 72, LL",0.02048
same,UL132 (P69338) protein level,"timepoint 72, LL",0.1287
same,US15 (P09718) protein level,"timepoint 72, LL",0.4326
same,CVC2 (P16726) protein level,"timepoint 96, DE",0.1714
same,DBP (P17147) protein level,"timepoint 96, DE",0.7941
same,HELI (P16736) protein level,"timepoint 96, DE",0.8017
same,IR01 (P09710) protein level,"timepoint 96, DE",0.4575
same,NEC1 (P16794) protein level,"timepoint 96, DE",0.0869
same,NEC2 (P16791) protein level,"timepoint 96, DE",0.2886
same,RIR1 (P16782) protein level,"timepoint 96, DE",0.2098
same,TRM1 (P16724) protein level,"timepoint 96, DE",0.3134
same,UL4 (P17146) protein level,"timepoint 96, DE",0.2128
same,UL26 (P16762) protein level,"timepoint 96, DE",0.2828
same,UL32 (P08318) protein level,"timepoint 96, DE",0.1168
same,UL34 (P16812) protein level,"timepoint 96, DE",0.2231
same,UL35 (P16766) protein level,"timepoint 96, DE",0.1252
same,UL38 (P16779) protein level,"timepoint 96, DE",0.6672
same,UL44 (P16790) protein level,"timepoint 96, DE",0.176
same,UL48 (P16785) protein level,"timepoint 96, DE",0.2807
same,UL54 (P08546) protein level,"timepoint 96, DE",0.9075
same,UL71 (P16823) protein level,"timepoint 96, DE",0.4754
same,UL78 (P16751) protein level,"timepoint 96, DE",0.4235
same,UL84 (P16727) protein level,"timepoint 96, DE",0.2328
same,UL95 (P16801) protein level,"timepoint 96, DE",0.312
same,UL96 (P16787) protein level,"timepoint 96, DE",0.4112
same,UL97 (P16788) protein level,"timepoint 96, DE",0.3037
same,UL98 (P16789) protein level,"timepoint 96, DE",0.4674
same,UL102 (P16827) protein level,"timepoint 96, DE",0.9006
same,UL104 (P16735) protein level,"timepoint 96, DE",0.3067
same,UL112/UL113 (P17151) protein level,"timepoint 96, DE",0.5114
same,UL114 (P16769) protein level,"timepoint 96, DE",0.7883
same,UL119/UL118 (P16739) protein level,"timepoint 96, DE",0.6695
same,UL128 (P16837) protein level,"timepoint 96, DE",0.1937
same,US8 (P09730) protein level,"timepoint 96, DE",0.6801
same,US9 (P09729) protein level,"timepoint 96, DE",0.7084
same,US12 (P09721) protein level,"timepoint 96, DE",0.4505
same,US13 (P09720) protein level,"timepoint 96, DE",0.8895
same,US14 (P09719) protein level,"timepoint 96, DE",0.3447
same,US18 (P69334) protein level,"timepoint 96, DE",0.9283
same,US22 (P09722) protein level,"timepoint 96, DE",0.6231
same,US23 (P09701) protein level,"timepoint 96, DE",0.5304
same,US24 (P09700) protein level,"timepoint 96, DE",0.485
same,US34 (P09709) protein level,"timepoint 96, DE",0.2125
same,gB (P06473) protein level,"timepoint 96, DE",0.285
same,IRS1 (P09715) protein level,"timepoint 96, IE",0.7821
same,TRS1 (P09695) protein level,"timepoint 96, IE",0.7146
same,UL13 (P16755) protein level,"timepoint 96, IE",0.2986
same,UL36 (P16767) protein level,"timepoint 96, IE",0.5836
same,UL37 (P16778) protein level,"timepoint 96, IE",0.8017
same,UL122 (P19893) protein level,"timepoint 96, IE",0.1642
same,UL123 (P13202) protein level,"timepoint 96, IE",0.4758
same,CVC1 (P16799) protein level,"timepoint 96, L",0.2252
same,GO (P16750) protein level,"timepoint 96, L",0.2443
same,IR11 (P16809) protein level,"timepoint 96, L",0.9075
same,MCP (P16729) protein level,"timepoint 96, L",0.1482
same,SCP (Q7M6N6) protein level,"timepoint 96, L",0.1246
same,TRM2 (P16792) protein level,"timepoint 96, L",0.19
same,UL22A (P16845) protein level,"timepoint 96, L",0.3485
same,UL25 (P16761) protein level,"timepoint 96, L",0.2353
same,UL29 (P16764) protein level,"timepoint 96, L",0.6674
same,UL30 (P16765) protein level,"timepoint 96, L",0.2355
same,UL31 (P16848) protein level,"timepoint 96, L",0.2462
same,UL43 (P16781) protein level,"timepoint 96, L",0.05313
same,UL52 (P16793) protein level,"timepoint 96, L",0.3224
same,UL76 (P16725) protein level,"timepoint 96, L",0.1513
same,UL79 (P16752) protein level,"timepoint 96, L",0.3299
same,UL80 (P16753) protein level,"timepoint 96, L",0.2674
same,UL82 (P06726) protein level,"timepoint 96, L",0.2566
same,UL87 (P16730) protein level,"timepoint 96, L",0.2646
same,UL88 (P16731) protein level,"timepoint 96, L",0.3926
same,UL94 (P16800) protein level,"timepoint 96, L",0.2776
same,UL99 (P13200) protein level,"timepoint 96, L",0.1753
same,UL103 (P16734) protein level,"timepoint 96, L",0.2489
